Test results as given in patent publication US5185452A, “Benzheterocyclyl sulphones” (Imperial Chemical Industries PLC, priority 1989, dated 1993).

Target: T1, aldose reductase (Bos taurus, UniProt P16116)
T1 construct: partially purified aldose reductase is isolated in known manner from bovine lenses; from tissue; host or cells: bovine lenses
Experiment: in vitro inhibition of partially purified aldose reductase isolated from bovine lenses (reduction of glucose to sorbitol, spectrophotometric)
Type: biochemical
Settings: in vitro test
Description: Thus, in a standard procedure partially purified aldose reductase is isolated in known manner from bovine lenses. The percentage inhibition of this enzyme's ability in vitro to catalyse the reduction of aldoses to polyhydric alcohols, and particularly to reduce glucose to sorbitol, caused by a test compound can then be determined using standard spectrophotometric methods.

IC50: 0.013 µM
SMILES: Cc1c(C)c(S(=O)(=O)C[N+](=O)[O-])c(C)c2c1OC(C)(C)CC2 [Example 2, 2,2,5,7,8-pentamethyl-6-(nitromethylsulphonyl)-chroman]
